From PubChem BioAssay (NCI)
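Cultured in 96-well plates, cells were exposed to test compound for 48 hours across five concentrations. GI50: concentration for 50% inhibition of growth. At the TGI there is no net growth.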

Tests used:
Assay in all cases: inhibition of tumour cell growth, NCI panel, 48 h
HCC-2998 colon = tested on: HCC-2998 colon
BT-549 breast = tested on: BT-549 breast
SF-539 CNS = tested on: SF-539 CNS
TK-10 renal = tested on: TK-10 renal
COLO 205 colon = tested on: COLO 205 colon
OVCAR-3 ovarian = tested on: OVCAR-3 ovarian
MCF7 breast = tested on: MCF7 breast
786-0 renal = tested on: 786-0 renal
U251 CNS = tested on: U251 CNS
HCT-116 colon = tested on: HCT-116 colon
SK-MEL-5 melanoma = tested on: SK-MEL-5 melanoma
HOP-92 NSCLC = tested on: HOP-92 NSCLC
MDA-MB-435 = tested on: MDA-MB-435
SNB-19 CNS = tested on: SNB-19 CNS
OVCAR-5 ovarian = tested on: OVCAR-5 ovarian
SNB-75 CNS = tested on: SNB-75 CNS
IGROV1 ovarian = tested on: IGROV1 ovarian
SW-620 colon = tested on: SW-620 colon
SK-MEL-28 melanoma = tested on: SK-MEL-28 melanoma
ACHN renal = tested on: ACHN renal
M14 melanoma = tested on: M14 melanoma
OVCAR-4 ovarian = tested on: OVCAR-4 ovarian
SF-268 CNS = tested on: SF-268 CNS
SN12C renal = tested on: SN12C renal
NCI/ADR-RES ovarian = tested on: NCI/ADR-RES ovarian
UACC-257 melanoma = tested on: UACC-257 melanoma
MOLT-4 leukemia = tested on: MOLT-4 leukemia
HL-60(TB) leukemia = tested on: HL-60(TB) leukemia
HT29 colon = tested on: HT29 colon
NCI-H460 lung = tested on: NCI-H460 lung
T-47D breast = tested on: T-47D breast
A498 renal = tested on: A498 renal
NCI-H522 lung = tested on: NCI-H522 lung
LOX IMVI melanoma = tested on: LOX IMVI melanoma
KM12 colon = tested on: KM12 colon
SK-OV-3 ovarian = tested on: SK-OV-3 ovarian
CAKI-1 renal = tested on: CAKI-1 renal
SF-295 CNS = tested on: SF-295 CNS
CCRF-CEM leukemia = tested on: CCRF-CEM leukemia
HS 578T breast = tested on: HS 578T breast
MDA-MB-231 breast = tested on: MDA-MB-231 breast
A549 NSCLC = tested on: A549 NSCLC
OVCAR-8 ovarian = tested on: OVCAR-8 ovarian
EKVX NSCLC = tested on: EKVX NSCLC
UACC-62 melanoma = tested on: UACC-62 melanoma
UO-31 renal = tested on: UO-31 renal
RPMI-8226 leukemia = tested on: RPMI-8226 leukemia
K-562 leukemia = tested on: K-562 leukemia
HOP-62 NSCLC = tested on: HOP-62 NSCLC
NCI-H226 lung = tested on: NCI-H226 lung
PC-3 prostate = tested on: PC-3 prostate
MALME-3M melanoma = tested on: MALME-3M melanoma
RXF 393 renal = tested on: RXF 393 renal
HCT-15 colon = tested on: HCT-15 colon
SR leukemia = tested on: SR leukemia
DU-145 prostate = tested on: DU-145 prostate
NCI-H23 lung = tested on: NCI-H23 lung

Work on `c1ccc(C2CCCCC2)c(OCCCCCN2CCNCC2)c1` yielded a GI50 (HCC-2998 colon) of 1.32 µM, a TGI (HCC-2998 colon) of 2.7 µM and a GI50 (BT-549 breast) of 7.38 µM. For the same molecule, the TGI (BT-549 breast) was 37.9 µM, the GI50 (SF-539 CNS) was 3.65 µM and the TGI (SF-539 CNS) was 18.1 µM. It also gave a GI50 (TK-10 renal) of 5.67 µM, a TGI (TK-10 renal) of 19.3 µM and a GI50 (COLO 205 colon) of 1.45 µM. For the same molecule, the TGI (COLO 205 colon) was 3.31 µM, the GI50 (OVCAR-3 ovarian) was 2.74 µM and the TGI (OVCAR-3 ovarian) was 11.1 µM. It also gave a GI50 (MCF7 breast) of 1.89 µM, a TGI (MCF7 breast) of 4.36 µM and a GI50 (786-0 renal) of 1.7 µM. It also gave a TGI (786-0 renal) of 4.27 µM, a GI50 (U251 CNS) of 1.82 µM and a TGI (U251 CNS) of 4.2 µM. The GI50 (HCT-116 colon) was 1.65 µM, the TGI (HCT-116 colon) was 4.19 µM and the GI50 (SK-MEL-5 melanoma) was 1.45 µM. The TGI (SK-MEL-5 melanoma) was 2.81 µM, the GI50 (HOP-92 NSCLC) was 4.44 µM and the TGI (HOP-92 NSCLC) was 23 µM. For the same molecule, the GI50 (MDA-MB-435) was 1.69 µM, the TGI (MDA-MB-435) was 3.3 µM and the GI50 (SNB-19 CNS) was 3.49 µM. The TGI (SNB-19 CNS) was 14.4 µM, the GI50 (OVCAR-5 ovarian) was 3.46 µM and the TGI (OVCAR-5 ovarian) was 13 µM. It also gave a GI50 (SNB-75 CNS) of 1.32 µM, a TGI (SNB-75 CNS) of 3.54 µM and a GI50 (IGROV1 ovarian) of 2.77 µM. For the same molecule, the TGI (IGROV1 ovarian) was 12.6 µM, the GI50 (SW-620 colon) was 1.82 µM and the TGI (SW-620 colon) was 3.8 µM. For the same molecule, the GI50 (SK-MEL-28 melanoma) was 1.81 µM, the TGI (SK-MEL-28 melanoma) was 3.57 µM and the GI50 (ACHN renal) was 3.45 µM. It also gave a TGI (ACHN renal) of 13.2 µM, a GI50 (M14 melanoma) of 1.86 µM and a TGI (M14 melanoma) of 3.89 µM. The GI50 (OVCAR-4 ovarian) was 4.01 µM, the TGI (OVCAR-4 ovarian) was 17 µM and the GI50 (SF-268 CNS) was 5.14 µM. The TGI (SF-268 CNS) was 21.4 µM, the GI50 (SN12C renal) was 2.93 µM and the TGI (SN12C renal) was 18.1 µM. It also gave a GI50 (NCI/ADR-RES ovarian) of 7.07 µM, a TGI (NCI/ADR-RES ovarian) of 29.2 µM and a GI50 (UACC-257 melanoma) of 2.35 µM. The TGI (UACC-257 melanoma) was 4.92 µM, the GI50 (MOLT-4 leukemia) was 1.63 µM and the TGI (MOLT-4 leukemia) was 5.07 µM. For the same molecule, the GI50 (HL-60(TB) leukemia) was 1.72 µM, the TGI (HL-60(TB) leukemia) was 3.94 µM and the GI50 (HT29 colon) was 1.6 µM. The TGI (HT29 colon) was 4.9 µM, the GI50 (NCI-H460 lung) was 1.65 µM and the TGI (NCI-H460 lung) was 3.56 µM. For the same molecule, the GI50 (T-47D breast) was 1.92 µM, the TGI (T-47D breast) was 5.16 µM and the GI50 (A498 renal) was 4.54 µM. It also gave a TGI (A498 renal) of 20.7 µM, a GI50 (NCI-H522 lung) of 10.3 µM and a TGI (NCI-H522 lung) of 28.5 µM. It also gave a GI50 (LOX IMVI melanoma) of 1.59 µM, a TGI (LOX IMVI melanoma) of 3.01 µM and a GI50 (KM12 colon) of 1.85 µM. For the same molecule, the TGI (KM12 colon) was 4 µM, the GI50 (SK-OV-3 ovarian) was 6.51 µM and the TGI (SK-OV-3 ovarian) was 21.8 µM. It also gave a GI50 (CAKI-1 renal) of 2.81 µM, a TGI (CAKI-1 renal) of 10.9 µM and a GI50 (SF-295 CNS) of 2.36 µM. For the same molecule, the TGI (SF-295 CNS) was 6.04 µM, the GI50 (CCRF-CEM leukemia) was 2.4 µM and the TGI (CCRF-CEM leukemia) was 7.9 µM. It also gave a GI50 (HS 578T breast) of 3.61 µM, a TGI (HS 578T breast) of 22.1 µM and a GI50 (MDA-MB-231 breast) of 1.62 µM. For the same molecule, the TGI (MDA-MB-231 breast) was 3.75 µM, the GI50 (A549 NSCLC) was 4.81 µM and the TGI (A549 NSCLC) was 20.2 µM. For the same molecule, the GI50 (OVCAR-8 ovarian) was 13.4 µM, the TGI (OVCAR-8 ovarian) was 43 µM and the GI50 (EKVX NSCLC) was 4.07 µM. The TGI (EKVX NSCLC) was 19.9 µM, the GI50 (UACC-62 melanoma) was 1.87 µM and the TGI (UACC-62 melanoma) was 3.62 µM. For the same molecule, the GI50 (UO-31 renal) was 5.46 µM, the TGI (UO-31 renal) was 21.1 µM and the GI50 (RPMI-8226 leukemia) was 1.69 µM. For the same molecule, the TGI (RPMI-8226 leukemia) was 4.75 µM, the GI50 (K-562 leukemia) was 0.313 µM and the TGI (K-562 leukemia) was 1.7 µM. It also gave a GI50 (HOP-62 NSCLC) of 10.4 µM, a TGI (HOP-62 NSCLC) of 28.5 µM and a GI50 (NCI-H226 lung) of 22.4 µM. For the same molecule, the TGI (NCI-H226 lung) was 48.5 µM, the GI50 (PC-3 prostate) was 3.19 µM and the TGI (PC-3 prostate) was 18.4 µM. For the same molecule, the GI50 (MALME-3M melanoma) was 1.85 µM, the TGI (MALME-3M melanoma) was 3.57 µM and the GI50 (RXF 393 renal) was 1.77 µM. For the same molecule, the TGI (RXF 393 renal) was 4.02 µM, the GI50 (HCT-15 colon) was 1.83 µM and the TGI (HCT-15 colon) was 4.05 µM. For the same molecule, the GI50 (SR leukemia) was 0.995 µM, the TGI (SR leukemia) was 4.56 µM and the GI50 (DU-145 prostate) was 4.17 µM. The TGI (DU-145 prostate) was 16.2 µM, the GI50 (NCI-H23 lung) was 5.72 µM and the TGI (NCI-H23 lung) was 22.2 µM.
